Data: BindingDB's records for doi:10.7270/Q2TX3CTT (Broad Institute, 2010)

Biological target: Glycogen synthase kinase-3 beta (Homo sapiens, UniProt P49841)
Assay: GSK3beta kinase inhibitor potency, dose response, biochemical, luminescence, cell-free homogeneous, retest (AID 434954)

Chain of Glycogen synthase kinase-3 beta (P49841 whole entry): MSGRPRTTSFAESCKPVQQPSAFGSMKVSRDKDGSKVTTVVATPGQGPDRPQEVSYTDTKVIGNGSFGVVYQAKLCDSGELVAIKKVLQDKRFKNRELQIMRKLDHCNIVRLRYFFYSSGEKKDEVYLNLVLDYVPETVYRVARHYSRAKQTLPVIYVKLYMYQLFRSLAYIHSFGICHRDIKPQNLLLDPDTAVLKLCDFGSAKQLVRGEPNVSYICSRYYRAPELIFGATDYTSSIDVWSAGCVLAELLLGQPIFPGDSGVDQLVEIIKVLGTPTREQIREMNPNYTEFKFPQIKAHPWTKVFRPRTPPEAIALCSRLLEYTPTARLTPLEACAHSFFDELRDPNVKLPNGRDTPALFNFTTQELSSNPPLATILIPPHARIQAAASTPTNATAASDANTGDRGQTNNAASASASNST

Row | SMILES | EC50
1 | COc1ccc(C2C3=C(CC(C)(C)CC3=O)N=C(C)C2C#N)cc1 (stereo not drawn) [4-(4-methoxyphenyl)-2,7,7-trimethyl-5-oxidanylidene-1,4,6,8-tetrahydroquinoline-3-carbonitrile] | > 300 µM
2 | C[O+]=N[CH-]c1ccc(Oc2ccc(C)cc2)c([N+](=O)[O-])c1 [4-(4-methylphenoxy)-3-nitrobenzenecarbaldehyde O-methyloxime] | > 300 µM
3 | CN1CCN(c2nc(-c3ccccc3)nc(-c3ccccc3)c2C#N)CC1 [4-(4-methylpiperazin-1-yl)-2,6-diphenyl-pyrimidine-5-carbonitrile] | > 300 µM
4 | CCSc1nnc(-c2ccncc2)o1 [4-(5-Ethylsulfanyl-[1,3,4]oxadiazol-2-yl)-pyridine] | > 300 µM
5 | Cc1cc2c(Nc3ccc(O)cc3)ncnc2s1 [4-(6-Methyl-thieno[2,3-d]pyrimidin-4-ylamino)-phenol] | > 300 µM
6 | COc1ccc2nc(C)cc(N3CCOCC3)c2c1 [4-(6-methoxy-2-methyl-4-quinolinyl)morpholine] | > 300 µM
7 | O=C(COc1ccccc1[N+](=O)[O-])NN=Cc1ccc(OC(=O)c2ccco2)cc1 [4-((E)-{2-[2-(2-nitrophenoxy)acetyl]hydrazono}methyl)phenyl 2-furoate] | 14.7 µM
8 | O=C1CN(C(=O)c2ccco2)c2ccccc2N1 [4-(Furan-2-carbonyl)-3,4-dihydro-1H-quinoxalin-2-one] | > 300 µM
9 | NS(=O)(=O)c1ccc(N2CCCCCC2)c([N+](=O)[O-])c1 [4-(azepan-1-yl)-3-nitrobenzenesulfonamide] | > 300 µM
10 | CN(C)c1ccc(C(=O)NN2C(=O)c3ccccc3C2=O)cc1 [4-(dimethylamino)-N-(1,3-dioxo-2-isoindolyl)benzamide] | > 300 µM
11 | O=C(NC1CCC(C(=O)O)CC1)OCc1ccccc1 (stereo not drawn) [4-(phenylmethoxycarbonylamino)cyclohexane-1-carboxylic acid] | > 300 µM
12 | Cc1ccc(-c2nn(-c3ccccc3)cc2C=Nn2c(-c3cccs3)n[nH]c2=S)cc1 [4-({[3-(4-methylphenyl)-1-phenyl-1H-pyrazol-4-yl]methylene}amino)-5-(2-thienyl)-2,4-dihydro-3H-1,2,4-triazole-3-thione] | > 300 µM
13 | COc1ccc(NC(=O)c2sc(S)nc2N)cc1 [4-Amino-2-thioxo-2,3-dihydro-thiazole-5-carboxylic acid (4-methoxy-phenyl)-amide] | > 300 µM
14 | N#Cc1c2n(c3c(N)ncnc13)CCCCC2 [4-Amino-6,7,8,9-tetrahydro-5H-1,3,4b-triaza-benzo[a]azulene-10-carbonitrile] | > 300 µM
15 | CN(C)Cc1c(O)ccc2c3c(c(=O)oc12)CCCCC3 [4-Dimethylaminomethyl-3-hydroxy-8,9,10,11-tetrahydro-7H-cyclohepta[c]chromen-6-one] | 78.8 µM
16 | Nc1ncnc(NC2CCS(=O)(=O)C2)c1[N+](=O)[O-] (stereo not drawn) [4-N-(1,1-dioxothiolan-3-yl)-5-nitropyrimidine-4,6-diamine] | > 300 µM
17 | COc1ccc(OC)c(Nc2nc(NCCC(C)C)nc(N)c2[N+](=O)[O-])c1 [4-N-(2,5-dimethoxyphenyl)-2-N-(3-methylbutyl)-5-nitropyrimidine-2,4,6-triamine] | > 300 µM
18 | COCCCNc1nc(N)c([N+](=O)[O-])c(Nc2ccccc2OC)n1 [4-N-(2-methoxyphenyl)-2-N-(3-methoxypropyl)-5-nitropyrimidine-2,4,6-triamine] | 0.231 µM
19 | C=CCNc1nc(N)c([N+](=O)[O-])c(Nc2ccccc2OC)n1 [4-N-(2-methoxyphenyl)-5-nitro-2-N-prop-2-enylpyrimidine-2,4,6-triamine] | > 300 µM
20 | Nc1nc(NCCCN2CCOCC2)nc(Nc2ccc(F)cc2)c1[N+](=O)[O-] [4-N-(4-fluorophenyl)-2-N-(3-morpholin-4-ylpropyl)-5-nitropyrimidine-2,4,6-triamine] | > 300 µM
21 | Nc1nc(Nc2ccccc2)nc(NCc2ccco2)c1[N+](=O)[O-] [4-N-(furan-2-ylmethyl)-5-nitro-2-N-phenylpyrimidine-2,4,6-triamine] | 4.89 µM
22 | CNc1nc(N)c([N+](=O)[O-])c(NC2CCCCC2)n1 [4-N-cyclohexyl-2-N-methyl-5-nitropyrimidine-2,4,6-triamine] | 7.52 µM
23 | C=CCNc1nc(N)c([N+](=O)[O-])c(NC2CCCCC2)n1 [4-N-cyclohexyl-5-nitro-2-N-prop-2-enylpyrimidine-2,4,6-triamine] | 5.45 µM
24 | COC(=O)CCC(=O)Oc1ccc(OC(=O)CCC(=O)OC)cc1 [4-O-[4-(4-methoxy-4-oxobutanoyl)oxyphenyl] 1-O-methyl butanedioate] | > 300 µM
25 | Cc1n[nH]c(O)c1N=Nc1ccc(S(N)(=O)=O)cc1 [4-[2-(3-methyl-5-oxopyrazol-4-yl)hydrazinyl]benzenesulfonamide] | 36.6 µM
26 | CCOC(=O)c1c(C)[nH]c(C)c1C(=O)COC(=O)CNC(=O)c1ccc(OCC)cc1 [4-[2-[2-[[(4-ethoxyphenyl)-oxomethyl]amino]-1-oxoethoxy]-1-oxoethyl]-2,5-dimethyl-1H-pyrrole-3-carboxylic acid ethyl ester] | > 300 µM
27 | C[C@]12C=CC(=O)C=C1CC[C@@H]1C2C(O)C[C@@]2(C)C1CC[C@]2(O)C(=O)COC(=O)CCC(=O)O (stereo partly drawn) [4-[2-[(8S,10R,11S,13S,17R)-11,17-dihydroxy-10,13-dimethyl-3-oxo-7,8,9,11,12,14,15,16-octahydro-6H-cyclopenta[a]phenanthren-17-yl]-2-oxoethoxy]-4-oxobutanoic acid] | > 300 µM

Row | SMILES | EC50
28 | COC(=O)c1ccc(NC(=O)CCN2CCN(Cc3ccccc3)CC2)cc1 [4-[3-(4-Benzyl-piperazin-1-yl)-propionylamino]-benzoic acid methyl ester] | > 300 µM
29 | Clc1ccccc1CN1CCN(c2cccc3[nH]ccc23)CC1 [4-[4-[(2-chlorophenyl)methyl]piperazin-1-yl]-1H-indole] | > 300 µM
30 | Cn1c(SCc2cccc(Br)c2)nnc1-c1ccncc1 [4-[5-(3-Bromo-benzylsulfanyl)-4-methyl-4H-[1,2,4]triazol-3-yl]-pyridine] | > 300 µM
31 | O=Cc1ccc(Oc2nc(Cl)ncc2F)cc1 [4-[(2-chloro-5-fluoro-4-pyrimidinyl)oxy]benzaldehyde] | > 300 µM
32 | COC(=O)c1ccc(Nc2nc(-c3ccncc3)nc3ccccc23)cc1 [4-[(2-pyridin-4-yl-4-quinazolinyl)amino]benzoic acid methyl ester] | > 300 µM
33 | CC1=C(C#N)C(=O)NC(=O)C1=NNc1ccc(S(N)(=O)=O)cc1 [4-[(2Z)-2-(5-cyano-4-methyl-2,6-dioxopyridin-3-ylidene)hydrazinyl]benzenesulfonamide] | 0.917 µM
34 | Cc1ccc(Sc2ccc(CN=O)cc2[N+](=O)[O-])cc1 [4-[(4-methylphenyl)thio]-3-nitrobenzaldehyde oxime] | 51.7 µM
35 | NS(=O)(=O)c1ccc(N=Nc2cnc(O)c(O)c2)cc1 [4-[(5,6-dioxo-3-pyridinyl)hydrazo]benzenesulfonamide] | > 300 µM
36 | Cc1ccc(-c2nn(-c3ccccc3)cc2C=Nn2c(-c3ccncc3)n[nH]c2=S)cc1 [4-[[3-(4-methylphenyl)-1-phenyl-4-pyrazolyl]methylideneamino]-3-pyridin-4-yl-1H-1,2,4-triazole-5-thione] | > 300 µM
37 | Cc1nc(C)c(-c2csc(Nc3ccc(C(=O)O)c(O)c3)n2)s1 [4-[[4-(2,4-dimethyl-1,3-thiazol-5-yl)-1,3-thiazol-2-yl]amino]-2-hydroxybenzoic acid] | > 300 µM
38 | CC(C)[C@H](CO)Nc1nc(NCc2ccc(S(N)(=O)=O)cc2)c2ncn(C(C)C)c2n1 [4-[[[2-[[(2R)-1-hydroxy-3-methylbutan-2-yl]amino]-9-propan-2-yl-6-purinyl]amino]methyl]benzenesulfonamide] | 39.6 µM
39 | CS(=O)(=O)N(Cc1ccccc1)c1ccc(C(=O)Nc2ccccc2Sc2ccccc2)cc1 [4-[methylsulfonyl-(phenylmethyl)amino]-N-(2-phenylsulfanylphenyl)benzamide] | > 300 µM
40 | N#Cc1c(N)nc(-c2ccccc2)nc1-c1ccccc1 [4-amino-2,6-diphenyl-5-pyrimidinecarbonitrile] | > 300 µM
41 | NC(=S)c1cn(C2OC(CO)C(O)C2O)c2ncnc(N)c12 (stereo not drawn) [4-amino-7-[3,4-dihydroxy-5-(hydroxymethyl)oxolan-2-yl]pyrrolo[2,3-d]pyrimidine-5-carbothioamide] | 12 µM
42 | N#Cc1c(Nc2ccccc2)sc(C(=O)c2ccccc2)c1N [4-azanyl-2-phenylazanyl-5-(phenylcarbonyl)thiophene-3-carbonitrile] | 52.9 µM
43 | CCCCc1cc(=O)oc2cc(O)cc(O)c12 [4-butyl-5,7-dihydroxy-2H-chromen-2-one] | 15.2 µM
44 | C=C(Cl)COc1ccc2c(CCCC)cc(=O)oc2c1 [4-butyl-7-(2-chloranylprop-2-enoxy)chromen-2-one] | > 300 µM
45 | CCCCc1cc(=O)oc2cc(C)c(CN3CCCC3)c(O)c12 [4-butyl-7-methyl-5-oxidanyl-6-(pyrrolidin-1-ylmethyl)chromen-2-one] | > 300 µM
46 | CCCCc1cc(=O)oc2c(CN(C)C)c(O)ccc12 [4-butyl-8-[(dimethylamino)methyl]-7-hydroxy-1-benzopyran-2-one] | > 300 µM
47 | COc1ccc(-c2nc(-c3ccccc3)nc(Cl)c2C#N)cc1 [4-chloranyl-6-(4-methoxyphenyl)-2-phenyl-pyrimidine-5-carbonitrile] | > 300 µM
48 | CCc1cc(=O)oc2cc(C)cc(O)c12 [4-ethyl-5-hydroxy-7-methyl-1-benzopyran-2-one] | > 300 µM
49 | CCSc1ncnc2c(C#N)c3n(c12)CCCCC3 [4-ethylsulfanyl-7,8,9,10-tetrahydro-6H-pyrimido[3,4]pyrrolo[3,5-a]azepine-11-carbonitrile] | 77.5 µM
50 | COc1cc([CH+][N-]NC(=O)c2ccc(O)cc2)ccc1Oc1ccc([N+](=O)[O-])cn1 [4-hydroxy-N-[[3-methoxy-4-(5-nitropyridin-2-yl)oxyphenyl]methylideneamino]benzamide;propan-2-ol] | > 300 µM
51 | O=C(OCCN1CCCCC1)c1ccc(O)cc1 [4-hydroxybenzoic acid 2-(1-piperidinyl)ethyl ester] | > 300 µM
52 | O=C(OCCCOC(=O)c1ccc(O)cc1)c1ccc(O)cc1 [4-hydroxybenzoic acid 3-[(4-hydroxyphenyl)-oxomethoxy]propyl ester] | 1.84 µM
53 | C=CCNC(=O)c1ccc(OC)cc1 [4-methoxy-N-prop-2-enylbenzamide] | > 300 µM
